# Columns and labels:
# Assay in all cases: NCI human tumor cell line panel growth inhibition
# Type in all cases: cell-based
# [1] = system: NCI-H226 lung cancer cells; conditions: Homo sapiens, read-out: Log10 GI50 (converted)
# SF-295 CNS cancer cells = conditions: read-out: Log10 GI50 (converted)
# A-498 renal cancer cells = conditions: Homo sapiens, A498, read-out: Log10 GI50 (converted)
# SK-MEL-2 melanoma cells = conditions: read-out: Log10 GI50 (converted)
# SNB-75 CNS cancer cells = conditions: Homo sapiens, read-out: Log10 GI50 (converted)
# EKVX lung cancer cells = conditions: read-out: Log10 GI50 (converted)
# [2] = system: NCI-H322M lung cancer cells; conditions: Homo sapiens, read-out: Log10 GI50 (converted)
# HOP-62 lung cancer cells = conditions: Homo sapiens, read-out: Log10 GI50 (converted)
# DLD-1 colon cancer cells = conditions: Homo sapiens, read-out: Log10 GI50 (converted)
# [3] = system: HCT-15 colon cancer cells; conditions: Homo sapiens, read-out: Log10 GI50 (converted)
# SN12C renal cancer cells = conditions: read-out: Log10 GI50 (converted)
# SF-268 CNS cancer cells = conditions: read-out: Log10 GI50 (converted)
# [4] = system: RXF-393 renal cancer cells; conditions: Homo sapiens, read-out: Log10 GI50 (converted)
# LOX IMVI melanoma cells = conditions: read-out: Log10 GI50 (converted)
# HOP-18 lung cancer cells = conditions: Homo sapiens, read-out: Log10 GI50 (converted)
# 786-0 renal cancer cells = conditions: read-out: Log10 GI50 (converted)
# [5] = system: NCI-H522 lung cancer cells; conditions: read-out: Log10 GI50 (converted)
# [6] = system: KM20L2 colon cancer cells; conditions: Homo sapiens, KM-20L2, read-out: Log10 GI50 (converted)
# [7] = system: NCI-H460 lung cancer cells; conditions: Homo sapiens, read-out: Log10 GI50 (converted)
# M-14 melanoma cells = conditions: M14, read-out: Log10 GI50 (converted)
# U251 CNS cancer cells = conditions: Homo sapiens, U-251, read-out: Log10 GI50 (converted)
# [8] = system: SK-OV-3 ovarian cancer cells; conditions: Homo sapiens, read-out: Log10 GI50 (converted)
# [9] = system: COLO-205 colon cancer cells; conditions: Homo sapiens; COLO-205, colon cancer; read-out: Log10 GI50 (converted)
# UACC-257 melanoma cells = conditions: Homo sapiens, read-out: Log10 GI50 (converted)
# [10] = system: HCC-2998 colon cancer cells; conditions: Homo sapiens, read-out: Log10 GI50 (converted)
# [11] = system: IGROV-1 ovarian cancer cells; conditions: Homo sapiens, read-out: Log10 GI50 (converted)
# [12] = system: A549/ATCC lung cancer cells; conditions: Homo sapiens, read-out: Log10 GI50 (converted)
# [13] = system: NCI-H23 lung cancer cells; conditions: read-out: Log10 GI50 (converted)
# HT29 colon cancer cells = conditions: Homo sapiens, HT-29, read-out: Log10 GI50 (converted)
# ACHN renal cancer cells = conditions: read-out: Log10 GI50 (converted)
# [14] = system: OVCAR-3 ovarian cancer cells; conditions: Homo sapiens; OVCAR-3, ovarian cancer; read-out: Log10 GI50 (converted)
# [15] = system: LXPL-529 lung cancer cells; conditions: Homo sapiens, read-out: Log10 GI50 (converted)
# [16] = system: CAKI-1 renal cancer cells; conditions: Homo sapiens; CAKI-1, renal cancer; read-out: Log10 GI50 (converted)
# MALME-3M melanoma cells = conditions: read-out: Log10 GI50 (converted)
# [17] = system: RXF-631 renal cancer cells; conditions: Homo sapiens, read-out: Log10 GI50 (converted)
# UO-31 renal cancer cells = conditions: read-out: Log10 GI50 (converted)
# [18] = system: OVCAR-5 ovarian cancer cells; conditions: Homo sapiens, read-out: Log10 GI50 (converted)
# TK-10 renal cancer cells = conditions: Homo sapiens, read-out: Log10 GI50 (converted)
# UACC-62 melanoma cells = conditions: Homo sapiens, read-out: Log10 GI50 (converted)
# XP-498 CNS cancer cells = conditions: read-out: Log10 GI50 (converted)
# Description: The first screen measures the cytotoxicity against a panel of sixty different human tumor cell lines. This assay provides data regarding the general cytotoxicity of an individual compound.
# The length of a bar is indicative of differential cytotoxicity against a specific type of tumor cells or tumor panels.
# The antitumor cytotoxicity of the thiophene compounds tested in the first two in vitro assays was measured by a microculture assay using either 3-(4,5-dimethylthiazol-2-yl)-2,5-diphenyltetrazolium bromide (MTT) or sulforhodamine B (SRB). [M. R. Boyd in "Principles and Practices of Oncology," V. T. DeVita, Jr., S. Hellman and S. A. Rosenberg (Eds.), Vol. 3, PPO Updates, Number 10, 1989.] This assay has an advantage over in vivo assay in that results are obtained within a week as opposed to several months. The assay was carried out in 96-well microtiter plates. The MTT assay is based on the production of a dark blue formazan product by dehydrogenase in the mitochondria of live tumor cells after exposure to drug for 6 days [M. C. Alley, D. A. Scudiero, A. Monks, M. L. Hursey, M. J. Czerwinski, D. L. Fine, B. J. Abbott, J. G. Mayo, R. H. Shoemaker and M. R. Boyd, Cancer Res., 48, 589, 1988.] Thus, only live cells are stained and can be measured at 570 nm. The SRB assay is based on the binding of the anionic group to the basic amino acid residues of cellular proteins after exposure of tumor cells to drug for 2 days [P. Skehan, R. Storeng, D. Scudiero, A. Monks, J. McMahon, D. Vistica, J. T. Warren, H. Bohesch, S. Kenney and M. R. Boyd, J. Nat. Cancer Inst., 82, 1107, 1990.] Thus, the total protein (viability) can be measured at 564 nm.
smiles,measurement,setting,value
CC(=O)OCc1ccc(-c2ccc(-c3cccs3)s2)s1,GI50,[1],0.324 µM
same,GI50,SF-295 CNS cancer cells,18.2 µM
same,GI50,A-498 renal cancer cells,0.0437 µM
same,GI50,SK-MEL-2 melanoma cells,72.4 µM
same,GI50,SNB-75 CNS cancer cells,< 0.01 µM
same,GI50,EKVX lung cancer cells,24.5 µM
same,GI50,[2],19.5 µM
same,GI50,HOP-62 lung cancer cells,24 µM
same,GI50,DLD-1 colon cancer cells,< 0.01 µM
same,GI50,[3],50.1 µM
same,GI50,SN12C renal cancer cells,28.8 µM
same,GI50,SF-268 CNS cancer cells,24.5 µM
same,GI50,[4],18.2 µM
same,GI50,LOX IMVI melanoma cells,24 µM
same,GI50,HOP-18 lung cancer cells,2.34 µM
same,GI50,786-0 renal cancer cells,18.6 µM
same,GI50,[5],13.2 µM
same,GI50,[6],0.132 µM
same,GI50,[7],1.51 µM
same,GI50,M-14 melanoma cells,39.8 µM
same,GI50,U251 CNS cancer cells,< 0.01 µM
same,GI50,[8],91.2 µM
same,GI50,[9],0.437 µM
same,GI50,UACC-257 melanoma cells,0.0933 µM
same,GI50,[10],24.5 µM
same,GI50,[11],5.01 µM
same,GI50,[12],6.61 µM
same,GI50,[13],19.5 µM
same,GI50,HT29 colon cancer cells,30.2 µM
same,GI50,ACHN renal cancer cells,17.8 µM
same,GI50,[14],0.0257 µM
same,GI50,[15],< 0.01 µM
same,GI50,[16],0.0182 µM
same,GI50,MALME-3M melanoma cells,32.4 µM
same,GI50,[17],< 0.01 µM
same,GI50,UO-31 renal cancer cells,18.6 µM
same,GI50,[18],26.3 µM
same,GI50,TK-10 renal cancer cells,0.12 µM
same,GI50,UACC-62 melanoma cells,17 µM
OCc1ccc(-c2ccc(-c3ccc(-c4cccs4)s3)s2)s1,GI50,[1],5.89 µM
same,GI50,XP-498 CNS cancer cells,11 µM
same,GI50,UACC-257 melanoma cells,10.7 µM
same,GI50,[11],1.12 µM
same,GI50,[15],1.05 µM
same,GI50,[16],0.617 µM
same,GI50,[17],11 µM
same,GI50,TK-10 renal cancer cells,0.891 µM
